Test results from patent US20250163056A1, “NONMUSCLE MYOSIN II INHIBITORS” (The University of Florida Research Foundation, Inc., priority 2018, published 2025).
pKi: −log10 of the molar value.

Experiments:
Bovine cardiac myosin = Bovine cardiac myosin (Bos taurus (Bovine), UniProt Q9BE39); experiment: Cardiac muscle myosin II actin-activated ATPase assay (NADH-coupled); type: biochemical; parameters: key to Ratio CMMII:NMII Ki/EC50: NMII-sel: no Ki value for cardiac myosin II could be determined; the compounds had no detectable inhibitory properties versus the cardiac myosin II; details: for Ratio CMMII:NMII Ki/EC50: cardiac myosin II Ki over nonmuscle myosin II EC50; for pKi: 300 nM cardiac myosin, 10 μM actin, 25° C., read-out: CMMII KI
In short: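 NADH-coupled (PK/LDH) assay at 25° C: 300 nM bovine cardiac myosin, 10 μM rabbit F-actin, 1 mM ATP, 1 mM PEP, 220 μM NADH, MOPS pH 7.0, 0.5% DMSO. NADH fluorescence was followed for 30 min; Ki values came from 16-point triplicate data (top 50 uM) fitted to a quadratic one-to-one binding model.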

Rabbit skeletal myosin = experiment: Skeletal muscle myosin II actin-activated ATPase assay; type: biochemical; details: 20 nM skeletal muscle myosin II; read-out: SKMMII KI
In short: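 NADH-coupled (PK/LDH) actin-activated ATPase at 25 °C with 20 nM rabbit skeletal myosin II, 10 μM F-actin, 1 mM ATP, 1 mM PEP, 220 μM NADH in MOPS pH 7.0, MgCl2, EGTA, BSA, DTT, 0.5% DMSO. NADH fluorescence followed 30 min; inhibitory constants from 16-point triplicate curves (top 50 uM), quadratic one-to-one fit.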

[1] = Photostability, percentage remaining undegraded under illumination or in the dark; details: for Photostability 4 hours: percentage remaining undegraded after 4 hours illumination; for Photostability 24 hours: percentage remaining undegraded after 24 hours illumination; for Photostability Dark (24 h): percentage remaining undegraded in the dark

Bovine cardiac myosin, sequence (Q9BE39 whole entry): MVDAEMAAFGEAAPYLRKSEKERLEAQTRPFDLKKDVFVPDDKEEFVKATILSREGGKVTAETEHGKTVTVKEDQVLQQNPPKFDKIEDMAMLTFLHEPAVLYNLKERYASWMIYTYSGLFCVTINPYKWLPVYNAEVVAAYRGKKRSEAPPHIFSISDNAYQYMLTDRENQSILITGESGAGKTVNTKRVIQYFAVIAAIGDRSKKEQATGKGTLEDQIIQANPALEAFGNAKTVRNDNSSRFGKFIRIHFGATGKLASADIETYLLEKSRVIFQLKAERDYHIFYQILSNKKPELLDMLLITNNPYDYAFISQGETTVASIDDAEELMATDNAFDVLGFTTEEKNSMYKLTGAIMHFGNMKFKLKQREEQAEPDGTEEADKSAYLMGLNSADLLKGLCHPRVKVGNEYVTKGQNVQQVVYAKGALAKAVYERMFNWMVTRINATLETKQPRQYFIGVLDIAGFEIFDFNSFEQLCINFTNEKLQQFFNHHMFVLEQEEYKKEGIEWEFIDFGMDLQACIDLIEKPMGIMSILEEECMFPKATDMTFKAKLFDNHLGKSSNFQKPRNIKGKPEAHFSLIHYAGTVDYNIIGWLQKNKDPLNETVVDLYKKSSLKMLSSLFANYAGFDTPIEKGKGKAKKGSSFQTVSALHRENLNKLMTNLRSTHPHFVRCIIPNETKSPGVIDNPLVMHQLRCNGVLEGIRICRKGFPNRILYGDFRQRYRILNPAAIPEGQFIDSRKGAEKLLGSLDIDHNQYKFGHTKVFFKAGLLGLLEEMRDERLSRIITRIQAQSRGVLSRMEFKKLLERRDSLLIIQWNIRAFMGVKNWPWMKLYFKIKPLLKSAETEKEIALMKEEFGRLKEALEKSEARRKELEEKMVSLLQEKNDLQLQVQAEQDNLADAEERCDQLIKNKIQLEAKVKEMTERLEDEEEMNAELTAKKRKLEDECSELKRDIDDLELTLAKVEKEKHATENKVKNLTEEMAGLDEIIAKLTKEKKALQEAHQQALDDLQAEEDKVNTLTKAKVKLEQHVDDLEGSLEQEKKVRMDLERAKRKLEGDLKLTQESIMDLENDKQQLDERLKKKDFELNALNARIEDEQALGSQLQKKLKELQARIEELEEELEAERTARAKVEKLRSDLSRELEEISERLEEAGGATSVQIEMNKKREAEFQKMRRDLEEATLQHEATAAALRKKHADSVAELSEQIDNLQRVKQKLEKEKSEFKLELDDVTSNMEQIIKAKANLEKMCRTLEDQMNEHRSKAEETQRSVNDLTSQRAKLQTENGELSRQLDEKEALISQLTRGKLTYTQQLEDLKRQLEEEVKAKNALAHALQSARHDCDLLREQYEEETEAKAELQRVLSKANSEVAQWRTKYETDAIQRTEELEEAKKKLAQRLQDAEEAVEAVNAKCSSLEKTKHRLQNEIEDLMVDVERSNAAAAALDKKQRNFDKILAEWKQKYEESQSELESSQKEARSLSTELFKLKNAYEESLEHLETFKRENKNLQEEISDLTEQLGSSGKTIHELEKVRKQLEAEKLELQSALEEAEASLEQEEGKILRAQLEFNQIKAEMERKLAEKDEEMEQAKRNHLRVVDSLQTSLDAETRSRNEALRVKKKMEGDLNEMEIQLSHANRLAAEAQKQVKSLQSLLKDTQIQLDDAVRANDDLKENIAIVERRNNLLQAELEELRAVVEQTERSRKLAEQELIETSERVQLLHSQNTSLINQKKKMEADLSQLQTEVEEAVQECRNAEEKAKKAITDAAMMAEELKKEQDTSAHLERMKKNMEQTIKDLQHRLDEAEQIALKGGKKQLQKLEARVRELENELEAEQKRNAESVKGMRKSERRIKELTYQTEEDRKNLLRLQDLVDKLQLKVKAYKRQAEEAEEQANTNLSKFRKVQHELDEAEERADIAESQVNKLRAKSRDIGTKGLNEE
Bovine cardiac myosin, sequence (P85100 whole entry partner): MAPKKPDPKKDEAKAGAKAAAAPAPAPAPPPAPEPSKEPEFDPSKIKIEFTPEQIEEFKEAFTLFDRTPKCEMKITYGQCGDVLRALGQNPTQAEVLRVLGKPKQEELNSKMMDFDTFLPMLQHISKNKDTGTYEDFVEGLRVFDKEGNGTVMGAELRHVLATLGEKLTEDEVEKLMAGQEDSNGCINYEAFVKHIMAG
Bovine cardiac myosin, sequence (Q3SZE5 whole entry partner): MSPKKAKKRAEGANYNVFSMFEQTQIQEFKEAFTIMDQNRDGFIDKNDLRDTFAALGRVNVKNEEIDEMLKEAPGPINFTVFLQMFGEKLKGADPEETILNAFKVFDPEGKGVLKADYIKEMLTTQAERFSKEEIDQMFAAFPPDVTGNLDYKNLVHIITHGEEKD

| Compound | Ratio CMMII:NMII Ki/EC50 (Bovine cardiac myosin) | pKi (Rabbit skeletal myosin) | Photostability 4 hours [1] [%] | Photostability 24 hours [1] [%] | Photostability Dark (24 h) [1] [%] | pKi (Bovine cardiac myosin) |
| --- | --- | --- | --- | --- | --- | --- |
| Cc1cc2c(cc1F)C(=O)[C@]1(O)CCN(c3ccc4ncccc4c3)C1=N2 [BPN-0027197] | NMII-sel | 5.62 | >99 | 36.4 | >99 |  |
| Cc1nc2cc(N3CC[C@@]4(O)C(=O)c5cc(F)c(C)cc5N=C34)ccc2o1 [BPN-0027198] | 3.6 | 6.06 | 89.9 | 21.4 | >99 | 4.98 |
| Cc1nc2ccc(N3CC[C@@]4(O)C(=O)c5cc(C)c(C)cc5N=C34)cc2o1 [BPN-0027213] | 11.4 | 6.35 | 46.3 | 1.0 | 85.0 | 4.48 |
| Cc1cc2c(cc1C)C(=O)[C@]1(O)CCN(c3ccc4ncccc4c3)C1=N2 [BPN-0027215] | NMII-sel | 6.00 | 73.2 | 9.2 | 97.3 |  |
| Cc1cc2c(s1)N=C1N(c3ccc4ncccc4c3)CC[C@@]1(O)C2=O [BPN-0027216] | 11.5 | 5.34 | 97.2 | 85.0 | >99 | 4.51 |
| CCc1cc2c(s1)N=C1N(c3ccc4ncccc4c3)CC[C@@]1(O)C2=O [BPN-0027217] | 20.5 | 4.68 | 97.9 | 76.0 | >99 | 3.80 |
| O=C1c2cc(C(F)(F)F)ccc2N=C2N(c3ccc4ncccc4c3)CC[C@@]12O [BPN-0027218] | NMII-sel | 4.40 | 90.0 | 4.4 | 95.5 |  |
| Cc1cc2c(cc1C)C(=O)[C@]1(O)CCN(c3ccc4ncncc4c3)C1=N2 [BPN-0027228] | 10.7 | 5.34 | >99 | 89.1 | >99 | 3.52 |
| N#Cc1ccc(N2CC[C@@]3(O)C(=O)c4c(sc5c4CCCC5)N=C23)cc1 [BPN-0027236] | NMII-sel | 5.30 | >99 | 84.9 | >99 |  |
| Cc1cc(N2CC[C@@]3(O)C(=O)c4cc(C(F)(F)F)ccc4N=C23)on1 [BPN-0027237] | 4.5 | 5.17 | 79.8 | 15.8 | 82.7 | 4.30 |
| Cc1sc2c(c1C)C(=O)[C@]1(O)CCN(c3ccc(C#N)c(Cl)c3)C1=N2 [BPN-0027238] | NMII-sel | 5.43 | >99 | >99 | >99 |  |
| Cc1cc2c(cc1C)C(=O)[C@]1(O)CCN(c3ccc4nnccc4c3)C1=N2 [BPN-0027241] | 7.7 | 5.14 | 91.6 | 87.0 | 97.4 | 4.00 |
| COc1ccc2cc(N3CC[C@@]4(O)C(=O)c5cc(C)c(C)cc5N=C34)ccc2n1 [BPN-0027250] | NMII-sel | 6.00 | 45.8 | 2.7 | 70.1 |  |
| COc1ccc2cc(N3CC[C@@]4(O)C(=O)c5cc(C)ccc5N=C34)ccc2n1 [BPN-0027255] | NMII-sel | 6.10 | 82.4 | 42.2 | 98.3 |  |
| Cc1cc2c(s1)N=C1N(c3ccc(C#N)c(Cl)c3)CC[C@@]1(O)C2=O [BPN-0027257] | 6.8 | 5.38 | 97.0 | 78.0 | 97.4 | 4.40 |
| Cc1ccc2c(c1)C(=O)[C@]1(O)CCN(c3ccc4nc(C)ccc4c3)C1=N2 [BPN-0027289] | 29.4 | 6.00 | 91.9 | 26.3 | 97.0 | 4.30 |
| Cc1ccc2c(c1)C(=O)[C@]1(O)CCN(c3ccc4nccnc4c3)C1=N2 [BPN-0027330] | 8.0 | 5.38 | 92.7 | 64.6 | >99 | 4.10 |
| Cc1cc(N2CC[C@@]3(O)C(=O)c4cc(C)c(C(F)(F)F)cc4N=C23)on1 [BPN-0027346] | 6.9 | 5.70 | 97.7 | 98.7 | 98.1 | 4.48 |
| Cc1ccc2c(c1)C(=O)[C@]1(O)CCN(c3ccc4c(C)noc4c3)C1=N2 [BPN-0027374] | NMII-sel | 6.09 | 96.9 | 86.4 | >99 |  |
| Cc1sc2c(c1C)C(=O)[C@]1(O)CCN(c3ccc4ncccc4c3)C1=N2 [BPN-0027376] | 7.8 | 5.17 | 90.4 | 2.8 | 97.0 | 4.34 |
| Cc1ccc2c(c1)C(=O)[C@]1(O)CCN(c3ccc4nc(C#N)ccc4c3)C1=N2 [BPN-0027393] | 5.8 | 5.46 | 95.2 | 83.9 | 97.5 | 4.52 |
| Cc1ccc2c(c1)C(=O)[C@]1(O)CCN(c3ccc4nsnc4c3)C1=N2 [BPN-0027394] | 3.4 | 5.96 | 92.2 | 57.2 | 98.7 | 4.85 |
| Cc1ccc2c(c1)C(=O)[C@]1(O)CCN(c3ccn4nccc4c3)C1=N2 [BPN-0027396] | 5.3 | 5.96 | 85.5 | 23.5 | >99 | 5.02 |
| Cc1ccc2c(c1)C(=O)[C@]1(O)CCN(c3ccc4cncn4c3)C1=N2 [BPN-0027406] | 3.8 | 5.12 | 75.7 | 1.6 | >99 | 3.70 |
| Cc1ccc2c(c1)C(=O)[C@]1(O)CCN(c3cnc4sccc4c3)C1=N2 [BPN-0027410] | 7.4 | 5.80 | 91.5 | 41.8 | >99 | 4.60 |
